Common to all, as to assay: DTP human tumour cell line panel, 48 h
For experiment [1], the system named is ACHN renal.
Experiment [2] has as its system BT-549 breast.
The test system of experiment [3] is COLO 205 colon.
The subject of experiment [4] is HOP-62 NSCLC.
Experiment [5] has as its system HS 578T breast.
In experiment [6] the test system is HT29 colon.
Experiment [7] relates to K-562 leukemia.
In experiment [8] the test system is MALME-3M melanoma.
The test system of experiment [9] is MCF7 breast.
Experiment [10] deals with MDA-MB-435.
Experiment [11] deals with NCI-H226 lung.
Experiment [12] has as its system NCI-H23 lung.
Experiment [13] concerns OVCAR-3 ovarian.
The subject of experiment [14] is RPMI-8226 leukemia.
Experiment [15] concerns SF-295 CNS.
Experiment [16] has as its system SF-539 CNS.
The test system of experiment [17] is SK-OV-3 ovarian.
Experiment [18] has as its system SNB-19 CNS.
Experiment [19] concerns SNB-75 CNS.
The subject of experiment [20] is T-47D breast.

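Protocol summary: plate cells (96-well), add compound at 5 concentrations, incubate 48 h, interpolate endpoints linearly. TGI: concentration producing complete growth inhibition.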

One may read the TGI as the concentration at which net growth stops. A low value points to more potent growth arrest. As for `Cc1cccc(/C=C2\CCCc3ccccc3C2=O)c1`, the TGI in experiment [1] was found to be 86.6 µM; in experiment [2] it was 75.6 µM; in experiment [3], 35.8 µM; in [4], 99.4 µM; in experiment [5], 32.6 µM; in experiment [6] it was 46.6 µM. Further, the concentration for total growth inhibition (TGI) was determined as 48.8 µM in experiment [7]; 35.3 µM in [8]; 56.2 µM in experiment [9]; 37 µM in experiment [10]; 40.8 µM in [11]; 79.8 µM in [12]. Besides, the TGI in experiment [13] was 78.7 µM; in [14], 45.8 µM; in experiment [15] it was 41.8 µM; in experiment [16] it was 34.4 µM; in experiment [17], > 100 µM; in experiment [18] it was 90.3 µM. Moreover, the concentration for total growth inhibition (TGI) in [19] was > 100 µM.

As for `ClCCN1CCOC1=Nc1ccc2c(c1)CCCC2`, the TGI is 28.1 µM in [1]; 25 µM in experiment [3]; 22 µM in experiment [4]; 72 µM in experiment [5]; 33.1 µM in [6]; > 100 µM in experiment [7]. In addition, the TGI in [8] turned out to be 20.8 µM; in experiment [10] it was 29.2 µM; in experiment [11], 30.9 µM; in experiment [12], 26.7 µM; in experiment [13] it was 29.3 µM; in experiment [14], 26.2 µM. The TGI in experiment [15] was found to be 31.9 µM; in [16], 17.9 µM; in [17], 74.9 µM; in experiment [18], 17.8 µM; in [19], 28.7 µM; in [20], 41.1 µM.

In the case of `CCOC(=O)N(c1ccccc1)c1cc(=O)n2ccccc2n1`, the TGI in experiment [1], in experiment [2], in experiment [3], in [4], in [6] and in experiment [7] was > 100 µM throughout. In addition, the TGI in experiment [8], in experiment [9], in experiment [10], in [11], in experiment [12] and in experiment [13] was > 100 µM throughout. For the same molecule, the concentration for total growth inhibition (TGI) in experiment [14], in experiment [15], in experiment [16], in experiment [17], in experiment [18] and in experiment [19] was > 100 µM each time. Besides, in [20], the total growth inhibition concentration (TGI) is > 100 µM.

With `O=C(O)c1cc2cc(c1)N=Cc1ccccc1OCc1cccc(n1)COc1ccccc1C=N2`, the total growth inhibition concentration (TGI) is > 25 µM in experiment [1]; > 25 µM in experiment [2]; > 25 µM in experiment [3]; > 25 µM in experiment [4]; 13.1 µM in [5]; > 25 µM in experiment [6]. In addition, the total growth inhibition concentration (TGI) is > 25 µM in [7]; 22.4 µM in [8]; > 25 µM in experiment [9]; 8.25 µM in experiment [10]; > 25 µM in experiment [11]; > 25 µM in [12]. Moreover, the TGI was 13.2 µM in experiment [13]; 22 µM in experiment [14]; 22.1 µM in [15]; > 25 µM in experiment [16]; > 25 µM in experiment [17]; > 25 µM in [18]. Besides, in experiment [19], the concentration for total growth inhibition (TGI) is > 25 µM.

For `CCOC(=O)C1=C(C)OC(=O)[C@@]2(OC)C=C(Cl)[C@@]12C`, the total growth inhibition concentration (TGI) in experiment [1], in experiment [2], in [3], in experiment [4], in experiment [5] and in [6] was > 100 µM in each case. Further, the TGI in [7], in [8], in [9], in experiment [10], in experiment [11] and in experiment [12] was > 100 µM in each case. The concentration for total growth inhibition (TGI) in [13], in experiment [14], in [15], in experiment [16], in experiment [17] and in experiment [18] was > 100 µM in each case. Also, in experiment [19], the concentration for total growth inhibition (TGI) was > 100 µM.

For `O=c1[nH]c(=O)n(C2OC(CO)C(O)C2O)c2ccsc12` (stereo unspecified), the TGI in [1], in [2], in experiment [3], in experiment [4], in experiment [5] and in experiment [6] was > 100 µM in each case. Also, the TGI in experiment [7], in experiment [8], in [9], in [10], in [11] and in [12] was > 100 µM each time. The TGI in experiment [13], in [14], in [15], in experiment [16] and in [19] was > 100 µM each time.

Regarding `CCN(CC)CCCNc1nc(=O)[nH]c(C)c1C(=O)Nc1c2ccccc2nc2ccccc12`, the total growth inhibition concentration (TGI) in experiment [1] is 57.4 µM; in experiment [3] it was 23.5 µM; in experiment [4] it was > 100 µM; in [6], 26.2 µM; in experiment [7], > 100 µM; in [8], 45.1 µM. In addition, the TGI in experiment [9] was > 100 µM; in experiment [10], > 100 µM; in [11] it was 93.8 µM; in [12], 42.8 µM; in experiment [13], 51.6 µM; in experiment [14] it was 47.4 µM. In addition, the TGI in experiment [15] amounted to 27.3 µM; in [16], 41.8 µM; in [17], 59 µM; in experiment [18], 62.2 µM; in experiment [19] it was 55.5 µM; in experiment [20] it was 73.5 µM.

Take `O=C1/C(=C/c2ccc(Cl)cc2)N=C(c2ccccc2)N1c1nc2ccccc2s1`: the TGI in experiment [1] was > 100 µM; in experiment [4], > 100 µM; in experiment [5] it was 75.7 µM; in experiment [6], > 100 µM; in experiment [7], > 100 µM; in experiment [9] it was > 100 µM. The TGI in experiment [10], in experiment [11], in experiment [12], in experiment [13], in experiment [14] and in experiment [15] was > 100 µM in each case. The TGI in experiment [16], in [17], in experiment [19] and in experiment [20] was > 100 µM each time.

For the molecule `CCCCOC(=O)NC(Nc1ccc(S(=O)(=O)Nc2ccc(OC)nn2)cc1)(C(F)(F)F)C(F)(F)F`, the total growth inhibition concentration (TGI) in experiment [1], in experiment [3], in experiment [4], in [6], in experiment [7] and in experiment [8] was > 100 µM in each case. Also, the TGI in experiment [9], in experiment [10], in experiment [11], in experiment [12], in [13] and in experiment [14] was > 100 µM in each case. Besides, the total growth inhibition concentration (TGI) in experiment [15], in [16], in [17], in experiment [18] and in experiment [20] was > 100 µM throughout.

Take `CCOP(=O)(OCC)C(N)Cc1ccc(OC)c(OC)c1` (stereo unspecified): the TGI in experiment [1], in [2], in experiment [3], in experiment [6], in [7] and in experiment [8] was > 100 µM in each case. The TGI in experiment [9], in experiment [10], in [11], in [12], in experiment [13] and in [14] was > 100 µM each time. Moreover, the total growth inhibition concentration (TGI) in experiment [15], in experiment [16], in [18], in [19] and in experiment [20] was > 100 µM in each case.

Regarding `COCc1cc2c(cc1/C(=C/[N+](=O)[O-])CS(=O)(=O)c1ccccc1)OCO2`, the TGI in [1], in experiment [3], in experiment [4], in [5], in [6] and in experiment [7] was > 100 µM throughout. In addition, the TGI in experiment [9], in experiment [10], in experiment [11], in experiment [12], in experiment [13] and in experiment [14] was > 100 µM in each case. Besides, the TGI in experiment [15], in [16], in experiment [17], in experiment [19] and in experiment [20] was > 100 µM each time.

In the case of `CCOC(=O)C(C)(C(=O)OCC)/C(Cl)=C\Cl`, the TGI in [1], in experiment [3], in experiment [4], in [5], in experiment [6] and in [7] was > 100 µM throughout. Besides, the TGI in [8], in experiment [9], in [10], in [11], in experiment [12] and in experiment [13] was > 100 µM in each case. For the same molecule, the total growth inhibition concentration (TGI) in [14], in experiment [15], in experiment [16], in [17], in experiment [18] and in experiment [19] was > 100 µM each time. The TGI in [20] is > 100 µM.

Regarding `COc1cc(=O)n2c3ccccc3n(C)c2c1C#N`, the TGI in experiment [1], in [2], in [3], in experiment [4], in experiment [5] and in [6] was > 100 µM throughout. In addition, the total growth inhibition concentration (TGI) in [7], in [8], in [9], in experiment [10], in experiment [11] and in experiment [12] was > 100 µM each time. Also, the concentration for total growth inhibition (TGI) in [13], in experiment [14], in experiment [15], in experiment [16], in experiment [17] and in experiment [18] was > 100 µM each time. Also, the concentration for total growth inhibition (TGI) in [19] is > 100 µM.

For the molecule `C=C1CCCCCCCCCCC12SCCC2CCCCSC` (stereo unspecified), the concentration for total growth inhibition (TGI) in experiment [1] was 38.9 µM; in [3] it was 33.6 µM; in experiment [4], 40.9 µM; in experiment [5], > 100 µM; in [6], 61.4 µM; in experiment [7] it was 44 µM. The TGI in [8] amounted to 36.2 µM; in experiment [9], 39.3 µM; in [10] it was 75.7 µM; in experiment [11] it was 36.2 µM; in [12] it was 56.9 µM; in experiment [13], 34.1 µM. The TGI is 46 µM in [14]; 38.3 µM in [15]; 38.3 µM in experiment [16]; > 100 µM in experiment [17]; 52.2 µM in [18]; 43.8 µM in experiment [20].

With `COc1ccc(/C=C2\N=C3Sc4c(nc[nH]c4=O)N3C2=O)cc1`, the TGI in experiment [1], in experiment [3], in [4], in experiment [5], in [6] and in experiment [7] was > 100 µM in each case. Besides, the total growth inhibition concentration (TGI) in experiment [8], in experiment [9], in experiment [10], in experiment [11], in experiment [12] and in experiment [13] was > 100 µM in each case. Also, the total growth inhibition concentration (TGI) in [14], in [15], in experiment [16], in [17], in experiment [18] and in [19] was > 100 µM each time. Also, the concentration for total growth inhibition (TGI) in [20] is > 100 µM.

Values taken from PubChem BioAssay (NCI).
